Data reported in patent publication US20250092056A1, “URACIL DERIVATIVES HAVING VIRUS REPLICATION INHIBITORY ACTIVITY AND PHARMACEUTICAL COMPOSITION COMPRISING THE SAME” (Shionogi & Co., Ltd., priority 2022, published 2025).

target: Recombinant SARS-CoV-2 3CL Protease (Severe acute respiratory syndrome coronavirus 2 (2019-nCoV) (SARS-CoV-2), UniProt P0DTD1); assay: biochemical; assay type: biochemical; conditions: 50% SARS-CoV-2 3CL protease inhibitory concentration; read-out: IC50

`Cc1cc(-n2c(=O)c(-c3ccc(F)c(Cl)c3)c(N3CC4(CCOCC4)C3)n(CC#N)c2=O)cc(=O)[nH]1` [Compound I-161] and `Cc1cncc(-n2c(=O)c(-c3ccc(F)c(Cl)c3)c(N3CC4(CCOC4)C3)n(CC#N)c2=O)c1` [Compound I-045] cannot be ordered by IC50: less than 10 nM for the first, less than 10 nM for the second.

`N#CCn1c(N2CC(OC(F)(F)F)C2)c(-c2ccc(F)c(Cl)c2)c(=O)n(-c2cncc(Cl)c2)c1=O` [Compound I-257] and `C[C@@]1(O)CCN(c2c(-c3ccc(F)c(Cl)c3)c(=O)n(-c3cncc(Cl)c3)c(=O)n2CC#N)C1` (single isomer, unassigned) [Compound I-294] cannot be ordered by IC50: 0.35 nM for the first, less than 10 nM for the second.

`N#CCn1c(N2CCC(C(F)F)CC2)c(-c2ccc(F)c(Cl)c2)c(=O)n(-c2cncc(OCF)n2)c1=O` [Compound I-422] and `N#CCn1c(N2CC3(C2)CC(F)(F)C3)c(-c2ccc(F)c(Cl)c2)c(=O)n(-c2cncc(OC(F)F)n2)c1=O` [Compound I-332] cannot be ordered by IC50: less than 10 nM for the first, less than 10 nM for the second.

`COC1CN(c2c(-c3ccc(F)c(Cl)c3)c(=O)n(-c3cncc(C(F)F)n3)c(=O)n2CC#N)C1` [Compound I-396] and `N#CCn1c(N2CC(O)(C(F)(F)F)C2)c(-c2ccc(F)c(Cl)c2)c(=O)n(-c2cncc(C(F)F)n2)c1=O` [Compound I-383] cannot be ordered by IC50: less than 10 nM for the first, less than 10 nM for the second.

`N#CCn1c(N2CC3(C2)CC(F)(F)C3)c(-c2ccc(F)c(C(F)F)c2)c(=O)n(-c2cncc(Cl)c2)c1=O` [Compound I-339] and `COc1cncc(-n2c(=O)c(-c3ccc(F)c(Cl)c3)c(N3CC4(C3)CC(F)(F)C4)n(CC#N)c2=O)n1` [Compound I-260] cannot be ordered by IC50: less than 10 nM for the first, less than 10 nM for the second.

Compared with `N#CCn1c(N2CCC(O)(C(F)(F)F)CC2)c(-c2ccc(F)c(Cl)c2)c(=O)n(-c2cnc3cc(Cl)ccn23)c1=O` [Compound I-141], `N#CCn1c(N2CC3(CCCO3)C2)c(-c2ccc(F)c(Cl)c2)c(=O)n(-c2cncc(Cl)c2)c1=O` [Compound I-021] is lower in IC50: 10 to 100 nM for the first, less than 10 nM for the second.

`N#CCn1c(Oc2cncc(Cl)c2)c(-c2ccc(F)c(Cl)c2)c(=O)n(-c2cncc(Cl)c2)c1=O` [Compound I-246] and `N#CCn1c(C2CC(O)C2)c(-c2ccc(F)c(Cl)c2)c(=O)n(-c2cncc(Cl)c2)c1=O` (stereo not shown) [Compound I-371] cannot be ordered by IC50: less than 10 nM for the first, less than 10 nM for the second.

`N#CCn1c(C2CC(F)(C3CC3)C2)c(-c2ccc(F)c(Cl)c2)c(=O)n(-c2cncc(C(F)F)n2)c1=O` (stereo not shown) [Compound I-390] and `C[C@H](C#N)n1c(N2CC[C@@](O)(C(F)F)C2)c(-c2ccc(F)c(Cl)c2)c(=O)n(-c2cncc(Cl)c2)c1=O` (single isomer, unassigned) [Compound I-423] cannot be ordered by IC50: less than 10 nM for the first, less than 10 nM for the second.

Compared with `Cc1cncc(-n2c(=O)c(C(=O)c3cc(F)c(F)c(F)c3)c(-c3cc4ccccc4s3)n(CC#N)c2=O)c1` [Compound I-011], `Cc1cncc(-n2c(=O)c(Cc3cc(F)c(F)c(F)c3)c(-c3cc4ccccc4s3)n(CC#N)c2=O)c1` [Compound I-019] is lower in IC50: 10 to 100 nM for the first, less than 10 nM for the second.

`Cn1cnc(Cn2c(=O)c(Cc3cc(F)c(F)c(F)c3)c(N3CCc4ccccc4C3)n(CC#N)c2=O)n1` [Compound I-006] and `N#CCn1c(N2Cc3ccccc3C2)c(Cc2cc(F)c(F)c(F)c2)c(=O)n(C2CCNC(=O)C2)c1=O` (racemic) [Compound I-155] cannot be ordered by IC50: greater than 100 nM for the first, greater than 100 nM for the second.

`C#CCn1c(C)c(-c2ccc(F)c(Cl)c2)c(=O)n(-c2cncc(Cl)c2)c1=O` [Compound I-438] and `Cc1cncc(-n2c(=O)c(-c3cccc(Cl)c3)c(N3Cc4ccccc4C3)n(CC#N)c2=O)c1` [Compound I-042] cannot be ordered by IC50: less than 10 nM for the first, less than 10 nM for the second.

Compared with `Cc1cnnc(-n2c(=O)c(Cc3cc(F)c(F)c(F)c3)c(N3C[C@H]4C[C@@H](C3)O4)n(CC#N)c2=O)c1` [Compound I-035], `Cc1cncc(-n2c(=O)c(Cc3cc(F)c(F)c(F)c3)c(N3CCCC(C(F)(F)F)C3)n(CC#N)c2=O)c1` (racemic) [Compound I-097] is lower in IC50: greater than 100 nM for the first, less than 10 nM for the second.

First: Cc1cncc(-n2c(=O)c(Cc3cc(F)c(F)c(F)c3)c(N3CC4(CCOCC4)C3)n(CC#N)c2=O)c1 [Compound I-093]
Second: N#CCn1c(N2CC(O)(c3ncccn3)C2)c(-c2ccc(F)c(C(F)F)c2)c(=O)n(-c2cncc(C#N)c2)c1=O [Compound I-439]
The IC50 of the first is higher: 10 to 100 nM for the first, less than 10 nM for the second. The second is the more potent here.

test system: SARS-CoV-2; assay: Cytopathic effect (CPE) suppression effect confirmation test using HEK293T/ACE2-TMPRSS2 cells; assay type: cell-based; conditions: Severe acute respiratory syndrome coronavirus 2, HEK-293T, 72 h, read-out: EC50 (50% SARS-CoV-2 infected cell death inhibitory concentration), HEK293T/ACE2-TMPRSS2 cells, CPE suppression, CellTiter-Glo 2.0 after 3 days culture

`N#CCn1c(N2CC(OC(F)(F)F)C2)c(-c2ccc(F)c(Cl)c2)c(=O)n(-c2cncc(Cl)c2)c1=O` [Compound I-257] showed an EC50 of 2.98 nM.

same assay, conditions: Severe acute respiratory syndrome coronavirus 2, HEK-293T, 72 h, read-out: EC50 (50% SARS-CoV-2 infected cell death inhibitory concentration), class, HEK293T/ACE2-TMPRSS2 cells, CPE suppression, CellTiter-Glo 2.0 after 3 days culture

Compared with `Cc1cc(-n2c(=O)c(-c3ccc(F)c(Cl)c3)c(N3CC4(CCOCC4)C3)n(CC#N)c2=O)cc(=O)[nH]1` [Compound I-161], `Cc1cncc(-n2c(=O)c(-c3ccc(F)c(Cl)c3)c(N3CC4(CCOC4)C3)n(CC#N)c2=O)c1` [Compound I-045] is lower in EC50: 1000 to 5000 nM for the first, less than 100 nM for the second.

First: Cn1cnc(Cn2c(=O)c(Cc3cc(F)c(F)c(F)c3)c(N3CCc4ccccc4C3)n(CC#N)c2=O)n1 [Compound I-006]
Second: N#CCn1c(N2Cc3ccccc3C2)c(Cc2cc(F)c(F)c(F)c2)c(=O)n(C2CCNC(=O)C2)c1=O (racemic) [Compound I-155]
The EC50 of the first is lower: 100 to 1000 nM for the first, 1000 to 5000 nM for the second.

`N#CCn1c(N2CC3(CCCO3)C2)c(-c2ccc(F)c(Cl)c2)c(=O)n(-c2cncc(Cl)c2)c1=O` [Compound I-021] and `Cc1cncc(-n2c(=O)c(-c3cccc(Cl)c3)c(N3Cc4ccccc4C3)n(CC#N)c2=O)c1` [Compound I-042] cannot be ordered by EC50: less than 100 nM for the first, less than 100 nM for the second.

First: Cc1cnnc(-n2c(=O)c(Cc3cc(F)c(F)c(F)c3)c(N3C[C@H]4C[C@@H](C3)O4)n(CC#N)c2=O)c1 [Compound I-035]
Second: Cc1cncc(-n2c(=O)c(Cc3cc(F)c(F)c(F)c3)c(N3CCCC(C(F)(F)F)C3)n(CC#N)c2=O)c1 (racemic) [Compound I-097]
The EC50 of the first is higher: 100 to 1000 nM for the first, less than 100 nM for the second.

For `Cc1cncc(-n2c(=O)c(Cc3cc(F)c(F)c(F)c3)c(-c3cc4ccccc4s3)n(CC#N)c2=O)c1` [Compound I-019], the EC50 was less than 100 nM.

same assay, conditions: Severe acute respiratory syndrome coronavirus 2, HEK-293T, 72 h; HEK293T/ACE2-TMPRSS2 cells, CPE suppression, CellTiter-Glo 2.0 after 3 days culture; read-out: EC50 (50% SARS-CoV-2 infected cell death inhibitory concentration), class

`N#CCn1c(N2CCC(O)(C(F)(F)F)CC2)c(-c2ccc(F)c(Cl)c2)c(=O)n(-c2cnc3cc(Cl)ccn23)c1=O` [Compound I-141] and `Cc1cncc(-n2c(=O)c(Cc3cc(F)c(F)c(F)c3)c(N3CC4(CCOCC4)C3)n(CC#N)c2=O)c1` [Compound I-093] cannot be ordered by EC50: less than 100 nM for the first, less than 100 nM for the second.

In the case of `Cc1cncc(-n2c(=O)c(C(=O)c3cc(F)c(F)c(F)c3)c(-c3cc4ccccc4s3)n(CC#N)c2=O)c1` [Compound I-011], the EC50 is reported as less than 100 nM.

same assay, conditions: Severe acute respiratory syndrome coronavirus 2, HEK-293T; 50% SARS-CoV-2 infected cell death inhibitory concentration; HEK293T/ACE2-TMPRSS2 cells; read-out: EC50

`N#CCn1c(N2CCC(C(F)F)CC2)c(-c2ccc(F)c(Cl)c2)c(=O)n(-c2cncc(OCF)n2)c1=O` [Compound I-422] and `N#CCn1c(N2CC3(C2)CC(F)(F)C3)c(-c2ccc(F)c(Cl)c2)c(=O)n(-c2cncc(OC(F)F)n2)c1=O` [Compound I-332] cannot be ordered by EC50: less than 100 nM for the first, less than 100 nM for the second.

`COC1CN(c2c(-c3ccc(F)c(Cl)c3)c(=O)n(-c3cncc(C(F)F)n3)c(=O)n2CC#N)C1` [Compound I-396] and `N#CCn1c(N2CC(O)(C(F)(F)F)C2)c(-c2ccc(F)c(Cl)c2)c(=O)n(-c2cncc(C(F)F)n2)c1=O` [Compound I-383] cannot be ordered by EC50: less than 100 nM for the first, less than 100 nM for the second.

`N#CCn1c(N2CC3(C2)CC(F)(F)C3)c(-c2ccc(F)c(C(F)F)c2)c(=O)n(-c2cncc(Cl)c2)c1=O` [Compound I-339] and `COc1cncc(-n2c(=O)c(-c3ccc(F)c(Cl)c3)c(N3CC4(C3)CC(F)(F)C4)n(CC#N)c2=O)n1` [Compound I-260] cannot be ordered by EC50: less than 100 nM for the first, less than 100 nM for the second.

Compared with `N#CCn1c(Oc2cncc(Cl)c2)c(-c2ccc(F)c(Cl)c2)c(=O)n(-c2cncc(Cl)c2)c1=O` [Compound I-246], `N#CCn1c(C2CC(O)C2)c(-c2ccc(F)c(Cl)c2)c(=O)n(-c2cncc(Cl)c2)c1=O` (stereo not shown) [Compound I-371] is lower in EC50: 100 to 1000 nM for the first, less than 100 nM for the second.

`N#CCn1c(C2CC(F)(C3CC3)C2)c(-c2ccc(F)c(Cl)c2)c(=O)n(-c2cncc(C(F)F)n2)c1=O` (stereo not shown) [Compound I-390] and `C[C@@]1(O)CCN(c2c(-c3ccc(F)c(Cl)c3)c(=O)n(-c3cncc(Cl)c3)c(=O)n2CC#N)C1` (single isomer, unassigned) [Compound I-294] cannot be ordered by EC50: less than 100 nM for the first, less than 100 nM for the second.

`C#CCn1c(C)c(-c2ccc(F)c(Cl)c2)c(=O)n(-c2cncc(Cl)c2)c1=O` [Compound I-438] and `C[C@H](C#N)n1c(N2CC[C@@](O)(C(F)F)C2)c(-c2ccc(F)c(Cl)c2)c(=O)n(-c2cncc(Cl)c2)c1=O` (single isomer, unassigned) [Compound I-423] cannot be ordered by EC50: less than 100 nM for the first, less than 100 nM for the second.

`N#CCn1c(N2CC(O)(c3ncccn3)C2)c(-c2ccc(F)c(C(F)F)c2)c(=O)n(-c2cncc(C#N)c2)c1=O` [Compound I-439] gave an EC50 of less than 100 nM.
